How the values were obtained:
[1] = DIFI-log D: octanol-impregnated PVDF membrane (DIFI-tubes) / buffer distribution, UV readout; details: for logD at 2 h: pH 7.4
Procedure: All compounds of the validation set were dissolved in dimethylsulfoxide at a concentration of 10 mM (DMSO-stock).
The experiment started with the accurate coating of 0,45 μm hydrophobic PVDF membranes (Immobilon-P PVDF (Millipore) and PVDF-Plus (Whatman, Headquater: 27 Great West Road, Brentford, Middlesex, TW8 9BW, UK), which were fixed on the bottom of the DI FI-tub es.
Each membrane is impregnated with exactly 1 μl octanol and 1μl DMSO-stock.
After a short incubation of 10 min the tubes with the coated membranes were connected to a 96-deepwell plate which had been prefilled with exactly 1600 μl of the selected buffer solution (50 mM TAPSO (FLUKA, BioChemika, ArtNo.93357), pH 7.4).
The plate was then sealed and shaken for two hours. During this time the substance was distributed between the membrane, the octanol and the buffer solution accordingly.
After the distribution equilibrium was reached (after 2 h) the tubes were carefully disassembled from the top of the deepwell plate in order to analyze the octanol phase which still stucks to the membrane.
Therefore, the remaining compound in the octanol phase was washed out with additional octanol as eluent. The concentration of the substance in the eluent was then determined by UV spectroscopy at absorption wavelengths between 250 and 450 nm.
In order to know the exact sample concentration before incubation with buffer a reference plate was generated under the same conditions as the described sample plate above. The reference plate was directly treated with the eluent and the resulted reference concentration in the octanol phase was measured by UV spectroscopy.
The lipophilicity value log D may be calculated from the analyzed sample concentration after incubation with buffer (Co) and the reference concentration before distribution (Cref).
Due to the fact, that all UV measurements were carried out under the same conditions, the concentration term were replaced by UV-absorption values (Abs) at the same wavelength.
In this equation, Vw is the volume of the aqueous phase was divided by the volume of the octanol phase Vo.
For each compounds three determinations were performed according to the described method above. The preparation of the reference and sample plate was performed manually.

[2] = known log D values from literature; sources a) MEDChem01, MEDChem03, b) calculated from logP and pKa, c) Winiwarter et al. 1998; cited from earlier work

Compound | logD at 2 h [1] | Lit. log D [2] | DIFI-log D ([1]; 1 μl octanol on 0,45 μm PVDF membrane / 1600 μl 50 mM TAPSO pH 7.4, shaken 2 h, UV 250-450 nm, three determinations)
CCOC(=O)C1=C(C)NC(C)=C(C(=O)OC)C1c1cccc(Cl)c1Cl (centres unmarked) [Felodipine] | 4.84 | – | –
Clc1ccc(C(c2ccccc2Cl)C(Cl)Cl)cc1 (centres unmarked) [Mitotane] | 4.78 | 4.87 | –
COc1ccccc1OCCNCC(O)COc1cccc2[nH]c3ccccc3c12 (centres unmarked) [Carvedilol] | 3.38 | 3.37 | –
COc1ccc([C@@H]2Sc3ccccc3N(CCN(C)C)C(=O)[C@@H]2OC(C)=O)cc1 [Diltiazem] | 2.33 | 2.32 | –
C[C@]12CC[C@H]3[C@@H](CCC4=CC(=O)CC[C@@]43C)[C@@H]1CC[C@@H]2O [Testosterone] | 3.33 | – | –
COc1ccc(CCN2CCC(Nc3nc4ccccc4n3Cc3ccc(F)cc3)CC2)cc1 [Astemizole] | 4.12 | 4.10 | –
CN(C)CC/C=C1/c2ccccc2Sc2ccc(Cl)cc21 [Chlorprothixene] | 4.24 | 4.19 | –
C[C@@H]1C[C@H]2[C@@H]3CCC4=CC(=O)C=C[C@]4(C)[C@@]3(F)[C@@H](O)C[C@]2(C)[C@@]1(O)C(=O)CO [Dexamethasone] | – | – | 1.83
COCCOC(=O)C1=C(C)NC(C)=C(C(=O)OC(C)C)C1c1cccc([N+](=O)[O-])c1 (centres unmarked) [Nimodipine] | 3.61 | 3.73 | –
Clc1ccccc1C(c1ccccc1)(c1ccccc1)n1ccnc1 [Clotrimazole] | 4.91 | 4.99 | –

Reference: US7527975B2, “Determination of high lipophilicity values” (Hoffmann-La Roche Inc., priority 2005, dated 2009)
